Results on 24 compounds are retold here after patent US6506913B2, “Dimethylfurancarboxyanilide derivatives” (Sankyo Company, Limited, priority 1994, dated 2003).

Common to all, as to type: cell-based
The subject of assay [1] is Tyromyces palustris. Put plainly: Minimum inhibitory concentration by the agar dilution method. The settings on record: potato dextrose agar, 25° C., 5 days. An excerpt: (§1) Assay of minimum inhibitory concentration by the agar dilution method.
(§2) According to the agar dilution method, on sterilized media (potato dextrose agar medium; potato extract powder 0.4%, glucose 2%, agar 1.5%) prepared to contain certain concentrations of a test sample, flora (about 4 mm in diameter) of wood rotting fungi, Coriolus versicolor and Tyromyces palustris, which has been cultured previously on the same kind of medium, were inoculated.
(§3) Whether there is any potentiation or not has been described in Applied Microbiology 9, 538-541 (1961) by F. C. Kull et al. The assay was carried out according to the method usually employed.
(Agar dilution tests growth on a series of plates holding different concentrations.)

Assay [2] has as its system Coriolus versicolor. The description is as above. The settings on record: potato dextrose agar, 25° C., 5 days.
Text: as §1, §2, §3

A further assay has as its system Serpula lacrymans. Nature of the assay: Wood preservation test JIS A-9201 (1991): impregnated Sugi sapwood, weathered, forcedly decayed for 12 weeks. The settings on record: weathering 10 cycles, 20° C., mean of 9 samples. The procedure: (1) According to the test method for wood preservation described in the Japan Industrial Standards [JIS A-9201 (1991)], each of the test compounds was dissolved to a defined concentration in methanol. The solution was impregnated under a reduced pressure into a Sugi (Japanese cedar) sapwood (2×2×1) cm and then air-dried. Weathering test was repeated 10 times in which one cycle of the treatment was stirring in water for 8 hours, and then heating for 16 hours at 60° C. The test material was placed on the flora of Serpula lacrymans which had been previously grown on a quartz sand medium (malt extract 2%, glucose 1%, peptone 0.3% and yeast 0.2%), and forcedly decayed at 20° C. for 12 weeks. From the difference between the dry weight of the test material before the test and that after test, the degree of decrease in weight was obtained. […] The test was carried out by use of 9 samples for each condition, and the values shown in Table 2 are the mean values calculated from 9 samples.

The subject of assay [3] is Tyromyces palustris. Nature of the assay: Wood preservative efficacy on impregnated Sugi sapwood: hyphal growth and maximum crushing strength. Set-up: key: +: No hyphal growth was observed on the test material, and no difference was found in the maximum crushing strength from the healthy wood sample.; ±: A little hyphal growth was observed on the test material, or a little decrease was found in the maximum crushing strength.; −: Hyphal growth was observed on the test material, or clear decrease was found in the maximum crushing strength. The conditions noted are these: 0.1 w/v % methanol solution impregnated; weathering twice; 26° C., 3 weeks. The procedure:
(§4) Weathering test was repeated twice in which one cycle of the treatment was washing (about 2 liter per minute supply) with water for 5 hours, and then heating for 19 hours at 60° C. After dry air sterilization, the test samples were prepared. The test materials were placed on the flora of Coriolus versicolor which is a lignin-decomposing fungus, and of Tryomyces palustris which is a cellulose-decomposing fungus, and both of which are designated fungal species for assay of wood preservating effect. Both fungi had been previously grown on an agar medium (malt extract 2%, glucose 1% and peptone 0.5%). After the wood samples were forcedly deteriorated at 26° C. for 3 weeks, the effectiveness was determined from the degree of hyphal growth on the test material and the presence or absence of lowered maximum crushing strength. […] The wood preventive efficacy was judged by the following criteria. +: No hyphal growth was observed on the test material, and no difference was found in the maximum crushing strength from the healthy wood sample. ±: A little hyphal growth was observed on the test material, or a little decrease was found in the maximum crushing strength. −: Hyphal growth was observed on the test material, or clear decrease was found in the maximum crushing strength.

Assay [4] concerns Coriolus versicolor. The assay is described as above. Set-up: key: +: No hyphal growth was observed on the test material, and no difference was found in the maximum crushing strength from the healthy wood sample.; ±: A little hyphal growth was observed on the test material, or a little decrease was found in the maximum crushing strength.; −: Hyphal growth was observed on the test material, or clear decrease was found in the maximum crushing strength. The settings on record: 0.1 w/v % methanol solution impregnated; weathering twice; 26° C., 3 weeks. The procedure:
as §4

The mark [5] stands for this setting: impregnant concentration 0.005 % in methanol.
Setting [6] is: impregnant concentration 0.01 % in methanol.

Each structure is given as a SMILES string.

As to `CCCCNC(=O)OCC#CI` [B], the “MIC (ppm), single agent” value in the assay on Tyromyces palustris [1] is 2.5 ppm; in the assay on Coriolus versicolor [2] it was 25 ppm.
Consider `Clc1ccc(OCOCC#CI)cc1` [Control compound 1, 4-Chlorophenyl-3-iodopropargylformal, reference compound], for which the “MIC (ppm), single agent” value was determined as 2 ppm with Tyromyces palustris [1] and 6 ppm in the assay on Coriolus versicolor [2]. For the same compound, the entries for the “Mean weight decrease by decay (%)” value in the assay on Serpula lacrymans (setting [5]) and in the assay on Serpula lacrymans (setting [6]) were 18.6% and 9.7%, respectively.
Regarding `CCOC(=O)OCC(I)=C(Br)I` [Control compound 2, 3-Bromo-2,3-diiodo-2-propenylethylcarbonate, reference compound], the figures for the “MIC (ppm), single agent” value with Tyromyces palustris [1] and in the assay with Coriolus versicolor [2] were 25 ppm and 15 ppm, respectively. In the assay with Tyromyces palustris [3], the “Wood preventive efficacy, Tyromyces palustris” value is “+”. For the same compound, the “Wood preventive efficacy, Coriolus versicolor” value in the assay with Coriolus versicolor [4] is reported as “+”.
For `CC(=O)Nc1cccc(NC(=O)c2cc(C)oc2C)c1` [Example 1, 2,5-Dimethylfuran-3-carboxy(3-acetylaminoanilide)], the “Wood preventive efficacy, Tyromyces palustris” value in the assay on Tyromyces palustris [3] is listed as “−”. Also, the “Wood preventive efficacy, Coriolus versicolor” value in the assay on Coriolus versicolor [4] was “±”.
As for `CNC(=O)c1cccc(NC(=O)c2cc(C)oc2C)c1` [Example 2, 2.5-Dimethylfuran-3-carboxy[3-(N-methylcarbamoyl)anilide]], the “Wood preventive efficacy, Tyromyces palustris” value in the assay on Tyromyces palustris [3] was “−”. The “Wood preventive efficacy, Coriolus versicolor” value in the assay on Coriolus versicolor [4] was “−”.
Take `Cc1cc(C(=O)Nc2cccc(C(=O)N3CCCCC3)c2)c(C)o1` [Example 3, 2,5-Dimethylfuran-3-carboxy[3-(1-piperidylcarbonyl)anilide]]: in the assay on Tyromyces palustris [3], the “Wood preventive efficacy, Tyromyces palustris” value is “−”. The “Wood preventive efficacy, Coriolus versicolor” value with Coriolus versicolor [4] is “−”.
As for `Cc1cc(C(=O)Nc2cccc(C(=O)Nc3ccccc3)c2)c(C)o1` [Example 4, 2.5-Dimethylfuran-3-carboxyl[3-(N-phenylcarbamoyl)anilide]], the “Wood preventive efficacy, Tyromyces palustris” value in the assay with Tyromyces palustris [3] was “−”. In the assay on Coriolus versicolor [4], the “Wood preventive efficacy, Coriolus versicolor” value is “−”.
For `Cc1cc(C(=O)Nc2cccc(C(=O)OC(C)(C)C)c2)c(C)o1` [Example 5, 2,5-Dimethylfuran-3-carboxy(3-tert-butoxycarbonylanilide)], the “Wood preventive efficacy, Tyromyces palustris” value in the assay with Tyromyces palustris [3] is given as “−”. Further, the “Wood preventive efficacy, Coriolus versicolor” value in the assay with Coriolus versicolor [4] is on record as “−”.
Regarding `COC(=O)c1cccc(NC(=O)c2cc(C)oc2C)c1` [Example 6, 2,5-Dimethylfuran-3-carboxy(3-methoxycarbonylanilide)], in the assay with Tyromyces palustris [3], the “Wood preventive efficacy, Tyromyces palustris” value is listed as “+”. Moreover, the “Wood preventive efficacy, Coriolus versicolor” value in the assay on Coriolus versicolor [4] is listed as “+”.
Take `Cc1cc(C(=O)Nc2cccc(C(=O)c3ccccc3)c2)c(C)o1` [Example 7, 2,5-Dimethylfuran-3-carboxy(3-benzoylanilide)]: the “Wood preventive efficacy, Tyromyces palustris” value with Tyromyces palustris [3] is on record as “−”. Further, the “Wood preventive efficacy, Coriolus versicolor” value in the assay on Coriolus versicolor [4] is recorded as “+”.
For `Cc1cc(C(=O)Nc2cccc(NC(=O)c3ccccc3)c2)c(C)o1` [Example 8, 2,5-Dimethylfuran-3-carboxy(3-benzoylaminoanilide)], in that order: “−” and “±”.
As for `CCCCC(=O)Nc1cccc(NC(=O)c2cc(C)oc2C)c1` [Example 9, 2,5-Dimethylfuran-3-carboxy(3-valerylaminoanilide)], the “Wood preventive efficacy, Tyromyces palustris” value with Tyromyces palustris [3] is “−”. Moreover, the “Wood preventive efficacy, Coriolus versicolor” value with Coriolus versicolor [4] is reported as “−”.
Take `Cc1cc(C(=O)Nc2cccc(NC(=O)C3CCCCC3)c2)c(C)o1` [Example 10, 2,5-Dimethylfuran-3-carboxy(3-cyclohexylcarbonylaminoanilide)]: in the assay on Tyromyces palustris [3], the “Wood preventive efficacy, Tyromyces palustris” value was “−”. In addition, in the assay with Coriolus versicolor [4], the “Wood preventive efficacy, Coriolus versicolor” value is “+”.
Consider `COCc1cccc(NC(=O)c2cc(C)oc2C)c1` [Example 11, 2,5-Dimethylfuran-3-carboxy(3-methoxymethylanilide)], for which the “Wood preventive efficacy, Tyromyces palustris” value in the assay on Tyromyces palustris [3] is listed as “±”. Besides, the “Wood preventive efficacy, Coriolus versicolor” value in the assay with Coriolus versicolor [4] is listed as “+”.
`CCOCc1cccc(NC(=O)c2cc(C)oc2C)c1` [Example 12, 2,5-Dimethylfuran-3-carboxy(3-ethoxymethylanilide)]: in the assay with Tyromyces palustris [3], the “Wood preventive efficacy, Tyromyces palustris” value is “±”. Besides, the “Wood preventive efficacy, Coriolus versicolor” value with Coriolus versicolor [4] is reported as “±”.
In the case of `Cc1cc(C(=O)Nc2cccc(COC(C)C)c2)c(C)o1` [Example 13, 2,5-Dimethylfuran-3-carboxy(3-isopropyloxymethylanilide)], the “Wood preventive efficacy, Tyromyces palustris” value with Tyromyces palustris [3] was “+”. Besides, the “Wood preventive efficacy, Coriolus versicolor” value with Coriolus versicolor [4] was “+”.
For `COc1ccc(Cc2cccc(NC(=O)c3cc(C)oc3C)c2)cc1` [Example 14, 2,5-Dimethylfuran-3-carboxy[3-(4-methoxybenzyl)anilide]], the “Wood preventive efficacy, Tyromyces palustris” value in the assay with Tyromyces palustris [3] is listed as “+”. The “Wood preventive efficacy, Coriolus versicolor” value in the assay with Coriolus versicolor [4] was “+”.
In the case of `COC(=O)C=Cc1cccc(NC(=O)c2cc(C)oc2C)c1` [Example 15, 2,5-Dimethylfuran-3-carboxy[3-(2-methoxycarbonylvinyl)anilide]], the “Wood preventive efficacy, Tyromyces palustris” value in the assay on Tyromyces palustris [3] is on record as “−”. In the assay with Coriolus versicolor [4], the “Wood preventive efficacy, Coriolus versicolor” value is “+”.
For `CCc1cccc(NC(=O)c2cc(C)oc2C)c1` [Example 20, 2,5-Dimethylfuran-3-carboxy(3-ethylanilide)], the results for the “MIC (ppm), single agent” value in the assay on Tyromyces palustris [1] and with Coriolus versicolor [2] were 200 ppm and 2.5 ppm, respectively. For the same compound, in the assay on Tyromyces palustris [3], the “Wood preventive efficacy, Tyromyces palustris” value is given as “+”. Moreover, the “Wood preventive efficacy, Coriolus versicolor” value with Coriolus versicolor [4] is given as “+”. Also, the “Mean weight decrease by decay (%)” value is on record as 0.1% in the assay on Serpula lacrymans (setting [5]) and 0% in the assay on Serpula lacrymans (setting [6]).
As to `Cc1cc(C(=O)Nc2cccc(C(C)C)c2)c(C)o1` [Example 21, 2,5-Dimethylfuran-3-carboxy(3-isopropylanilide)], the results for the “MIC (ppm), single agent” value in the assay with Tyromyces palustris [1] and in the assay on Coriolus versicolor [2] were 200 ppm and 10.0 ppm, respectively. The “Wood preventive efficacy, Tyromyces palustris” value with Tyromyces palustris [3] is recorded as “+”. For the same compound, in the assay with Coriolus versicolor [4], the “Wood preventive efficacy, Coriolus versicolor” value is on record as “+”. The “Mean weight decrease by decay (%)” value with Serpula lacrymans (setting [5]) and in the assay on Serpula lacrymans (setting [6]) was 0% each time.
Regarding `CCCCCCc1cccc(NC(=O)c2cc(C)oc2C)c1` [Example 23, 2,5-Dimethylfuran-3-carboxy(3-hexylanilide)], the “Wood preventive efficacy, Tyromyces palustris” value in the assay with Tyromyces palustris [3] was “+”. The “Wood preventive efficacy, Coriolus versicolor” value with Coriolus versicolor [4] was “+”.
`CCCCc1cccc(NC(=O)c2cc(C)oc2C)c1` [Example 24, 2,5-Dimethylfuran-3-carboxy(3-butylanilide)]: the “Wood preventive efficacy, Tyromyces palustris” value in the assay on Tyromyces palustris [3] is “+”. Moreover, in the assay on Coriolus versicolor [4], the “Wood preventive efficacy, Coriolus versicolor” value is “+”.
In the case of `CCC(C)c1cccc(NC(=O)c2cc(C)oc2C)c1` (stereo not drawn) [Example 25, 2,5-Dimethylfuran-3-carboxy(3-sec-butylanilide)], the “Wood preventive efficacy, Tyromyces palustris” value with Tyromyces palustris [3] was “+”. For the same compound, in the assay on Coriolus versicolor [4], the “Wood preventive efficacy, Coriolus versicolor” value is listed as “+”.
`CCCCCc1cccc(NC(=O)c2cc(C)oc2C)c1` [Example 26, 2,5-Dimethylfuran-3-carboxy(3-pentylanilide)]: the “Wood preventive efficacy, Tyromyces palustris” value with Tyromyces palustris [3] was “+”. Moreover, the “Wood preventive efficacy, Coriolus versicolor” value in the assay on Coriolus versicolor [4] was “+”.
